Measurements from paper PMC9849758, “Chemically diverse activity-based probes with unexpected inhibitory mechanisms targeting trypsin-like serine proteases” (Frontiers in Chemistry, 2023).
Structures can show the parent of a compound that is named as a salt. Where two headings read alike, the source gives them in different places.

Columns and labels:
Type in all cases: biochemical
[1] = target: T1, Cathepsin G (cathepsin G human neutrophil) (Homo sapiens, UniProt P08311); assay: IC50 determination, spectrophotometric protease assay
T1 construct: Cathepsin G (cathepsin G human neutrophil, Sigma-Aldrich); purchased Sigma-Aldrich; host or cells: human neutrophil
T1 sequence (P08311 21-255): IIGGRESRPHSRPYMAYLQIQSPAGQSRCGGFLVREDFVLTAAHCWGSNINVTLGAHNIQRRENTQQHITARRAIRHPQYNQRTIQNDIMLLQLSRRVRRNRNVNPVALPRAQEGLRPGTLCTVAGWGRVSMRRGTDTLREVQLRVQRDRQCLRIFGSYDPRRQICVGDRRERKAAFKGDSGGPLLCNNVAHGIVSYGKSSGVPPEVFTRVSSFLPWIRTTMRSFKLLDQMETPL
Protocol: (§1) The IC50 values were determined using a spectrophotometric assay. All the experiments were conducted in duplicate. The readout consisted of evaluating the protease-mediated release of the chromophore para-nitroaniline (pNA) or fluorophore 7-amino-4-methyl coumarin (AMC) moieties from the respective substrates. Enzymatic activity was measured for 30 min at 37°C. All compounds were initially screened at three concentrations (10, 1, and .1 μM) to estimate the range of the IC50 value. Those which were able to reduce protease activity by at least 50% at a concentration of 10 μM were submitted to an exact IC50 determination. […] A third independent experiment was performed when the standard deviation of the two independent experiments was higher than […]. IC50 values were obtained by fitting the data with the four-parameter logistics equation using GraphPad Prism 9.
(§2) The conditions for each protease are described as follows, the concentration of substrate used was at the corresponding Km.

[2] = target: T2, TLCK-treated pancreatic bovine chymotrypsin (Bos taurus, UniProt P00766); assay: as above
T2 construct: TLCK-treated pancreatic bovine chymotrypsin (Sigma-Aldrich); purchased Sigma-Aldrich; host or cells: bovine pancreas
Protocol: as §1, §2

[3] = target: T3, Thrombin (recombinant thrombin) (Homo sapiens, UniProt P00734); assay: as above
T3 construct: purchased R&D
Protocol: as §1, §2

[4] = target: T4, Trypsin-3 (recombinant trypsin-3) (Homo sapiens, UniProt P35030); assay: as above
T4 construct: purchased R&D
T4 sequence (P35030 1-304): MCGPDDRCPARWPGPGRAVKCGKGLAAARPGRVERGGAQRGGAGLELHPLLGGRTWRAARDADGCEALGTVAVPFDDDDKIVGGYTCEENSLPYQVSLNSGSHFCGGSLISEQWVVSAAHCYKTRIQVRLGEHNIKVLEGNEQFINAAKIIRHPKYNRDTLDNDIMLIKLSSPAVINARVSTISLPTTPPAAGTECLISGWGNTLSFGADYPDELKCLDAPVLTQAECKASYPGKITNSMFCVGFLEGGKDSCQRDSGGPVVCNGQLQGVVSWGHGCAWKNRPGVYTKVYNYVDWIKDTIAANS
Protocol: as §1, §2

[5] = target: T5, uPA (recombinant urokinase plasminogen activator) (Homo sapiens, UniProt P00749); assay: as above
T5 construct: purchased HYPHEN BioMed
Protocol: as §1, §2

[6] = target: T6, β-tryptase (recombinant tryptase β-2) (Homo sapiens, UniProt P20231); assay: as above
T6 construct: purchased EnzoLife Sciences
Protocol: as §1, §2

uPA = target: T7, uPA (Homo sapiens, UniProt P00749); assay: Jump dilution, determination of inhibition type; settings: inhibitor at 10 times IC50, 15 min, diluted 10-fold or 100-fold; Rev./Irrev.
T7 construct: purchased HYPHEN BioMed
Protocol: (§3) The dissociation of the enzyme-inhibitor complex was monitored by substrate hydrolysis over time ([Joossens et al., 2006]).
(§4) Because ABPs are designed to be irreversible serine protease inhibitors, the IC50 is exclusively used as a first discriminatory evaluation. When an inhibitor is irreversible, its IC50 value not only depends on the substrate and enzyme concentration but also on the time of incubation with the enzyme before the reaction is started by adding the substrate. […] The progress curve in the presence of an irreversible inhibitor will show final velocities equal to zero (Figure 6C). In contrast, for a reversible inhibitor, progress curves have a non-zero final steady-state velocity (Figure 6A) ([McWhirter, 2021]). To corroborate the inhibitory mechanism of the compounds, jump-dilution assays were performed. These use an inhibitor concentration of 10-fold the IC50 for the incubation, and a posteriori, the reaction mixture is diluted 10-fold or 100-fold before adding the substrate. In the case of an irreversible inhibitor, enzymatic activity is not regained (Figure 6D), whereas, in the case of a reversible compound, a slow release of the inhibitor and a gradual increase of the enzymatic activity rate is observed (Figure 6B) ([Copeland, 2013]; [McWhirter, 2021]). The jump-dilution assays confirmed the behavior described by the progress curves.
(§5) 2.2.2 Jump dilution results
(§6) Supplementary Table 2. Jump dilution of selected alkyne and desthiobiotin probes against a panel of trypsin-like serine proteases. […]
(§7) # R R DtBa 3 tryptase Thrombin uPA CatG
(§8) 32b H Alk Irrev. Irrev. Rev. Irrev. Rev.
(§9) 45b DtB Irrev. Irrev. Rev. N.D. N.D.
(§10) 33b Alk Irrev. Irrev. Rev. Irrev. Rev.
(§11) 46b Cl DtB Irrev. Irrev. Rev. N.D. N.D.
(§12) 34b H Alk Rev. Rev. Rev. Irrev. Rev.
(§13) 50b DtB Rev. Rev. Rev. Irrev. Rev.
(§14) 35b Alk Rev. Rev. Rev. Irrev. Rev.
(§15) 52b NHCOMe DtB Rev. Rev. Rev. Irrev. Rev.
(§16) 36b Alk Rev. Rev. Rev. Irrev. Rev.
(§17) 54b Cl DtB Rev. Rev. Rev. Irrev. Rev.
(§18) 37b Alk Irrev. Irrev. N.D. Irrev. Irrev.
(§19) 55b H DtB Irrev. Irrev. N.D. Irrev. Irrev.
(§20) 38b Alk Irrev. Irrev. N.D. Irrev. Irrev.
(§21) 56b NHCOMe DtB Irrev. Irrev. N.D. Irrev. Irrev.
(§22) 39b Alk Irrev. Irrev. N.D. Irrev. Rev.
(§23) 57b Cl DtB Irrev. Irrev. N.D. Irrev. Rev.
(§24) 41b H Alk Irrev. Irrev. Irrev. N.D. N.D.
(§25) 31b Pro-Lys H Alk Irrev. Irrev. Irrev. Irrev. N.D. a Alk: ABP precursor bearing an alkyne; DtB: desthiobiotin probe b Panel of serine proteases abbreviations: urokinase plasminogen activator (uPA), cathepsin G (catG) N.D.: IC50 is greater than 10µM, and jump dilution was not performed
(§26) 2.2.3 Progress curves and Jump dilution experiments
(§27) Kinetic assays were performed in the following manner. The inhibitor was mixed with the substrate, and the buffer solution with the enzyme was added at the time zero. The progress curves show the release of para-nitroaniline (pNA) or 7-amino-4-methyl coumarin (AMC) as a function of time.
(§28) To monitor the dissociation of the inhibitor-enzyme, aliquots of the enzyme were incubated at 37 °C without and with the inhibitor at a concentration 10 times higher than its IC 50. The enzyme […]
(§29) min, the aliquots were diluted 10-fold or 100-fold into the substrate concentration and assay buffer used for the IC50 determination. The dissociation of the enzyme-inhibitor complex was monitored by substrate hydrolysis over time. Blue lines represent the control where no inhibitor was present. Pink lines represent the assay with inhibitor.

Trypsin-3 = target: T8, Trypsin-3 (Homo sapiens, UniProt P35030); assay: Jump dilution, determination of inhibition type; design: purchased R&D; settings: inhibitor at 10 times IC50, 15 min, diluted 10-fold or 100-fold; Rev./Irrev.
T8 sequence (P35030 1-304): T4 sequence (P35030 1-304)
Protocol: as §3, §4, §5, §6, §7, §8, §9, §10, §11, §12, §13, §14, §15, §16, §17, §18, §19, §20, §21, §22, §23, §24, §25, §26, §27, §28, §29

[7] = alkyne probes, 15 min preincubation at 37°C, mean ± SD

T6 sequence (P20231 31-275): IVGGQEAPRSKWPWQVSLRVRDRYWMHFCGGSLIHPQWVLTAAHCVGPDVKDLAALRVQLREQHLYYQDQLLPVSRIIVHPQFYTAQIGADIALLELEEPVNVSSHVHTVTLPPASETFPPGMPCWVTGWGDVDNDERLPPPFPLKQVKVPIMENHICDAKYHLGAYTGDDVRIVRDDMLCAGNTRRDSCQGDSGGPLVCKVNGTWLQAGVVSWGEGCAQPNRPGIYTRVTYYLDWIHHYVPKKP

## CC(=O)Nc1ccc(OP(=O)(Oc2ccc(NC(C)=O)cc2)C(Cc2ccc(NC(=N)N)cc2)NC(=O)OCCCc2cn(CCOCCOCCOCCNC(=O)CCCCC[C@H]3NC(=O)N[C@H]3C)nn2)cc1 (stereo partly shown) [52b]
[1]
  IC50: 0.05 ± 0.007 µM
[2]
  IC50: > 10 µM
[3]
  IC50: 0.76 ± 0.02 µM
[4]
  IC50: 0.01 ± 0.001 µM
[5]
  IC50: 0.01 ± 0.003 µM
[6]
  IC50: 0.07 ± 0.003 µM
uPA
  uPA jump dilution result: Irrev.
Trypsin-3
  Trypsin-3 jump dilution result: Rev.

## C#CCCCOC(=O)NC(c1ccc(NC(=N)N)cc1)P(=O)(Oc1ccccc1)Oc1ccccc1.O=C(O)C(F)(F)F (stereo not shown) [37b, Pent-4-yn-1-yl ((diphenoxyphosphoryl)(4-guanidinophenyl)methyl)carbamate trifluoroacetate salt]
[1]
  IC50: 0.64 ± 0.03 µM
[2]
  IC50: > 10 µM
[3]
  IC50: > 10 µM
[4]
  IC50: 0.23 ± 0.01 µM
[5]
  IC50: 1.79 ± 0.003 µM
[6]
  IC50: 0.9 ± 0.1 µM
uPA
  uPA jump dilution result: Irrev.
Trypsin-3
  Trypsin-3 jump dilution result: Irrev.

## C[C@@H]1NC(=O)N[C@@H]1CCCCCC(=O)NCCOCCOCCOCCn1cc(CCCOC(=O)NC(Cc2ccc(NC(=N)N)cc2)P(=O)(Oc2ccccc2)Oc2ccccc2)nn1 (stereo partly drawn) [50b, 3-(1-(18-((4R,5S)-5-methyl-2-oxoimidazolidin-4-yl)-13-oxo-3,6,9-trioxa-12-azaoctadecyl)-1H-1,2,3-triazol-4-yl)propyl (1-(diphenoxyphosphoryl)-2-(4-guanidinophenyl)ethyl)carbamate trifluoroacetate salt]
[1]
  IC50: 0.36 ± 0.004 µM
[2]
  IC50: 1.64 ± 0.5 µM
[3]
  IC50: 3.52 ± 0.39 µM
[4]
  IC50: 0.03 ± 0.01 µM
[5]
  IC50: 0.02 ± 0.0001 µM
[6]
  IC50: 0.36 ± 0.07 µM
uPA
  uPA jump dilution result: Irrev.
Trypsin-3
  Trypsin-3 jump dilution result: Rev.

## C[C@@H]1NC(=O)N[C@@H]1CCCCCC(=O)NCCOCCOCCOCCn1cc(CCCOC(=O)NC(c2ccc(NC(=N)N)cc2)P(=O)(Oc2ccccc2)Oc2ccccc2)nn1 (stereo partly shown) [55b]
[1]; read-out: CatG IC50, desthiobiotin probes, 15 min preincubation at 37°C, mean ± SD
  IC50: 1.62 ± 0.09 µM
[2]; read-out: ChTryp IC50, desthiobiotin probes, 15 min preincubation at 37°C, mean ± SD
  IC50: > 10 µM
[3]; read-out: Thrombin IC50, desthiobiotin probes, 15 min preincubation at 37°C, mean ± SD
  IC50: > 10 µM
[4]; read-out: Trypsin-3 IC50, desthiobiotin probes, 15 min preincubation at 37°C, mean ± SD
  IC50: 0.24 ± 0.01 µM
[5]; read-out: uPA IC50, desthiobiotin probes, 15 min preincubation at 37°C, mean ± SD
  IC50: 2.22 ± 0.07 µM
[6]; read-out: β-tryptase IC50, desthiobiotin probes, 15 min preincubation at 37°C, mean ± SD
  IC50: 0.37 ± 0.09 µM
uPA
  uPA jump dilution result: Irrev.
Trypsin-3
  Trypsin-3 jump dilution result: Irrev.

## C#CCCCOC(=O)NC(C1CCN(C(=N)N)CC1)P(=O)(Oc1ccccc1)Oc1ccccc1 (stereo not shown) [41b]
[1]
  IC50: > 10 µM
[1]; [7]
  CatG IC50: no inhibition
[2]
  IC50: > 10 µM
[3]
  IC50: 0.03 ± 0.001 µM
[4]
  IC50: 0.04 ± 0.002 µM
[5]
  IC50: > 10 µM
[5]; [7]
  uPA IC50: no inhibition
[6]
  IC50: 8.37 ± 0.44 µM
Trypsin-3
  Trypsin-3 jump dilution result: Irrev.

## C#CCCCOC(=O)NC(c1ccc(NC(=N)N)cc1)P(=O)(Oc1ccc(NC(C)=O)cc1)Oc1ccc(NC(C)=O)cc1 (stereo not shown) [38b, Pent-4-yn-1-yl ((bis(4-acetamidophenoxy)phosphoryl)(4-guanidinophenyl)methyl) carbamate]
[1]
  IC50: 0.13 ± 0.01 µM
[2]
  IC50: > 10 µM
[3]
  IC50: > 10 µM
[4]
  IC50: 0.04 ± 0.015 µM
[5]
  IC50: 1.52 ± 0.4 µM
[6]
  IC50: 0.12 ± 0.02 µM
uPA
  uPA jump dilution result: Irrev.
Trypsin-3
  Trypsin-3 jump dilution result: Irrev.
